Entries after “also recorded” stand apart in the source; their conditions may differ.
Columns and labels:
[1] = system: subjects with remission phase Type I diabetes; assay: Sustacal meal with intravenous GLIP infusion (Example 1); assay type: in vivo, human
Procedure: 7 subjects with remission phase Type I diabetes were studied after ingestion of a standardised meal of Sustacal (Upjohn) (delivering […]). Subjects continued their normal insulin treatment programme on the day prior to the test and, on the day of the test, omitted their morning insulin injection and arrived fasting at 8:00 am. […] Infusion was continued for 120 minutes. Blood levels of glucose, C-peptide, gastrin, glucagon and HPP were monitored by standard radioimmunoassay methods in samples taken before and at intervals during the study, up to 180 minutes. On another test day, subjects were given the Sustacal meal alone and the same analytes were similarly monitored.

[2] = system: subjects with remission phase Type I diabetes; assay: Sustacal meal with lower-dose GLIP infusion (Example 3); assay type: in vivo, human; settings: infusion 0.75 pmol/kg/min for 120 minutes after Sustacal meal, versus saline infusion; FIG. 3
Procedure: Four subjects with remission phase Type I diabetes were studied during infusion with 0.75 pm/kg/min-GLIP for 120 minutes after a Sustacal meal.
The test was conducted as described in Example 1 and blood glucose and C-peptice levels were measured. On a further test day, the subjects were studied during saline infusion after a similar Slistacal meal.

[3] = system: normal volunteers; assay: Sustacal meal preceded by subcutaneous GLIP in normal volunteers (Example 4); assay type: in vivo, human
Source text: Results are shown in FIG. 4. *indicates statistically significant differences between treatments (p<0.05).

[4] = system: Type I diabetic subjects; assay: Sustacal meal preceded by subcutaneous GLIP in Type I diabetics (Example 5); assay type: in vivo, human; settings: 100 μg GLIP subcutaneously prior to Sustacal meal
Source text: Type I diabetic subjects were studied.
The results are shown in FIG. 5. indicates statistically significant differences between treatments (p<0.05).

[5] = system: humans and other mammals; settings: cited from earlier work
[6] = system: Type II diabetics; settings: cited from earlier work
[7] = system: Type 1 diabetic subject; assay: Subcutaneous GLIP along with insulin before Sustacal meal (Example 6)
Procedure: One Type 1 diabetic subject was given GLIP along with insulin and the effects on post-prandial glycaemia observed. The subject received 5 units of insulin and 50 μg GLIP as subcutaneous injections immediately prior to ingestion of a Sustacal meal as described in Example 1. Blood levels of GLIP were monitored by a standard radioimmunoassay method.

[8] = subcutaneous injection of 00 gg GLIP immediately before Sustacal meal

Glucagon-like peptide 1(7-36)amide [GLIP]
gastrin response / gastrin levels ([1]; IV infusion 1.2 pm/kg/min after Sustacal meal, FIG. 1 Panel E): normal ga.trin response; also recorded: not significantly affected
blood glucose level after a meal ([1]; IV infusion 1.2 pm/kg/min for 120 minutes after Sustacal meal, FIG. 1 Panel A): excellent control of blood glucose level
secretion of pancreatic polypeptide (PP) after Sustacal meal ([1]; IV infusion 1.2 pm/kg/min, FIG. 1 Panel C): this response was absent during GLIP infusion
increase in blood glucose [2]: increase in glucose was less than in the control experiment
rise in C-peptide [2]: rise in C-peptide was similar to the control experiment
delays in increase in blood levels of glucose, HPP, C-peptide and insulin ([3]; experiment repeated with 50 Ag dose of GLIP): proportionally shorter
delays in increase in blood levels of glucose, HPP, C-peptide and insulin ([3]; experiment repeated with 200 Ag dose of GLIP): longer
increase in blood levels of C-peptide [3, 8]: delay in increase
increase in blood levels of HPP [3, 8]: delay in increase
increase in blood levels of glucose [3, 8]: delay in increase
increase in blood levels of insulin [3, 8]: delay in increase
blood glucose levels compared to control (no GLIP) ([4]; morning insulin omitted, FIG. 5 Panel A): lowering of blood glucose levels
pancreatic polypeptide (HPP) levels ([4]; FIG. 5 Panel D): delayed rise in pancreatic polypeptide (HPP) levels
insulin secretion over control levels ([4]; FIG. 5 Panels B and C): no enhancement of insulin secretion over control levels
gastric emptying [5]: delay of gastric emptying
effect between the peptide and oral hypoglycaemic agents [6]: synergistic effect
clearance of GLIP from the blood ([7]; 50 μg GLIP subcutaneously with 5 units insulin, radioimmunoassay, FIG. 6 Panel E): cleared from the blood in about two hours
blood glucose after standard meal ([7]; 50 gg GLIP with 5 units insulin (half the usual dose) subcutaneously before Sustacal meal, one subject, FIG. 6 Panel A): ≤ 8 mM
